Measured values taken from patent US20110301079A1, “NEUROMEDIN U RECEPTOR AGONISTS AND USES THEREOF” (Instituto di Ricerche di Biologia Molecolare P. Angeletti …, priority 2007, published 2011).
Residues, ends and D or L forms follow the SMILES beside them. *: point of attachment. X1 = CC(C)CCC[C@@H](C)[C@H]1CC[C@H]2[C@@H]3CC=C4C[C@@H](OC(=O)C*)CC[C@]4(C)[C@H]3CC[C@]12C

Columns and labels:
human NMUR1 = target: T1, human NMUR1 (Homo sapiens, UniProt Q9HB89); assay: FLIPR calcium mobilization assay, human NMUR1-expressing cell line; format: cell-based; details: for % Activity: human NMUR1, maximum response at 1 μM compared to the human NMU-25 response at the same concentration
T1 construct: expressed in transfected cells; host or cells: FLP-In CHO cells and HEK-293 FLP-In cells (pcDNA5)
T1 sequence (Q9HB89 1-426): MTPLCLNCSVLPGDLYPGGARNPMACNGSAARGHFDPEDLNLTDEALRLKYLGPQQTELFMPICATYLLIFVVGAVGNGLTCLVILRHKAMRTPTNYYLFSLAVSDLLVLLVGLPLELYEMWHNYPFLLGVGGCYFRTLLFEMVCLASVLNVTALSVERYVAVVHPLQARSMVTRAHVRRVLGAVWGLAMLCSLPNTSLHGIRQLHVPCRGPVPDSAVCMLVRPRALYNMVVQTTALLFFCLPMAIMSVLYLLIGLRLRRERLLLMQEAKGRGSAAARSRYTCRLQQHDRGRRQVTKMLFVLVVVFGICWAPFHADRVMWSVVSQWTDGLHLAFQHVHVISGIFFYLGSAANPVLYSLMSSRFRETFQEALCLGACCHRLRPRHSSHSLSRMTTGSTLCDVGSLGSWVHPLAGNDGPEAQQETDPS
Excerpt: (§1) Human, mouse or rat cDNAs encoding NMUR1 or NMUR2 (as described in Howard et al. Nature 406: 70-74 (2000) were subcloned in pcDNA5 (Invitrogen) and transfected into FLP-In CHO cells and HEK-293 FLP-In cells purchased from Invitrogen (Carlsbad, Calif.) using lipofectamine (Invitrogen). The Flp-In system allows integration and expression of a particular gene of interest at a specific genomic location utilizing the Flp recombinase from yeast. The transfected cells were selected by growth in medium containing 200 μg/mL hygromycin (Invitrogen). Populations were frozen at early passage numbers, and these stocks were used for further studies. Stable clones that expressed the mRNAs were identified functionally by FLIPR as well as by RT-PCR. […] Two different rodent NMUR1 cell lines were thus generated: one with the codon as predicted from the genomic databases and another cell line with an engineered methionine (ATG) as the start codon. The dog NMU receptors were also cloned from intestine RNA (NMUR1) and brain (NMUR2) and stable cell lines were generated as used for the human and rodent cell lines. […] To ensure high levels of expression in a heterologous system, a dog NMUR1 cell line was generated that contains an ATG as the start codon. Additionally, stable cell lines expressing the human receptors were generated in HEK-293/aeq 17 cells which stably express the aequorin gene under the CMV promoter. The human NMUR2 cDNA was cloned into pcDNA3.1 and human NMUR1 was subcloned into pIRES-puro (Clontech, Mountain View, Calif.), after transfection cells were selected in media containing G418 and either hygromycin (NMUR2) or puromycin (NMUR1).
(§2) The NMU receptors signal primarily through Gαq/11 proteins; therefore calcium mobilization assays can be utilized for functional activity.
(§3) Stable cell lines expressing human and or rodent NMUR1 or human NMUR2 receptors are plated at a density of 12,000 cells per well overnight on poly-lysine coated 384-well black-walled plates. The following day, the media is removed from the plates and the cells were subsequently loaded with Fluo-3 (Molecular Probes), a calcium sensitive dye, diluted in FLIPR buffer (1× Hank's buffered saline containing 20 mM HEPES, 0.1% BSA, 2.5 mM probenecid (Sigma) and 1.6 mM TR40). All reagents are from Invitrogen unless otherwise noted. Peptide stocks are resuspended in DMSO at a stock concentration of 2 mM and diluted in FLIPR buffer on the day of the experiment to a 4 μM working stock solution.
(§4) After a 90 minute incubation at room-temperature, cell plates are loaded onto a FLIPR (Molecular Devices) to monitor cellular fluorescence (excitation=488 nm; emission=540 nm) before and after compound/peptide addition. Eight to twelve point dose responses are tested on NMUR-expressing cell lines using FLIPR with 1 μM peptide as the highest dose. The response after peptide addition is taken as the maximum fluorescence units minus the fluorescence immediately prior to stimulation for each well. EC50 values are calculated using GraphPad Prism (San Diego, Calif.) software.
(§5) Percent activity refers to the maximum response at 1 μM compared to the human NMU-25 response at the same concentration.

human NMUR2 = target: T2, human NMUR2 (Homo sapiens, UniProt Q9GZQ4); assay: FLIPR calcium mobilization assay, human NMUR2-expressing cell line; format: cell-based; details: for % Activity: human NMUR2, maximum response at 1 μM compared to the human NMU-25 response at the same concentration
T2 construct: expressed in transfected cells; host or cells: FLP-In CHO cells and HEK-293 FLP-In cells (pcDNA5)
T2 sequence (Q9GZQ4 whole entry): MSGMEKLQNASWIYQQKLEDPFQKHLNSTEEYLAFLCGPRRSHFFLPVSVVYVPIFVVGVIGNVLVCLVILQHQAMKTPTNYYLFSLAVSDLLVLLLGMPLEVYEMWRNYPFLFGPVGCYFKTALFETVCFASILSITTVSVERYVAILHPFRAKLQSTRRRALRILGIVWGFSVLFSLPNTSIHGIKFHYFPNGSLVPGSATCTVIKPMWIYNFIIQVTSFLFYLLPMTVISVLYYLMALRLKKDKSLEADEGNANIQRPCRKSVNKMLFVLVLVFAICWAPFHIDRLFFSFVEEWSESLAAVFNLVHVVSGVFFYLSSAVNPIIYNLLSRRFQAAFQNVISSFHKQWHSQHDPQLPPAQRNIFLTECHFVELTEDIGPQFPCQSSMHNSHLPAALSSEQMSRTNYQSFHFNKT
Excerpt: as §1, §2, §3, §4, §5

mouse NMUR1-ATG = target: T3, mouse NMUR1-ATG (Mus musculus, UniProt O55040); assay: FLIPR calcium mobilization assay, mouse NMUR1-ATG cell line; format: cell-based; details: for % Activity: maximum response at 1 μM compared to the human NMU-25 response at the same concentration
T3 construct: expressed in transfected cells; host or cells: FLP-In CHO cells and HEK-293 FLP-In cells (pcDNA5)
T3 sequence (O55040 1-428): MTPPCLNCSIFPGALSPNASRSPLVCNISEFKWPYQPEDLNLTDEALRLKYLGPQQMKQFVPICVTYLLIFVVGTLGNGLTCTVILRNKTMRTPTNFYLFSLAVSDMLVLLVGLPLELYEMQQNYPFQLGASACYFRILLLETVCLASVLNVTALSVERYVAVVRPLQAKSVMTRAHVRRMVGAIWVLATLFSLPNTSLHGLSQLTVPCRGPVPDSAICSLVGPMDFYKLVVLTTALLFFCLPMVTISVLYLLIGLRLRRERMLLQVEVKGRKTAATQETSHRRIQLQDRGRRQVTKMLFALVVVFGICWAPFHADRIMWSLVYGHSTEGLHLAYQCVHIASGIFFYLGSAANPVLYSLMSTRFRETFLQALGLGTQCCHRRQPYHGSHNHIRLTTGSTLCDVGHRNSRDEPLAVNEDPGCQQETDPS
Excerpt: as §1, §2, §3, §4, §5

mouse NMUR2 = target: T4, mouse NMUR2 (Mus musculus, UniProt Q8BZ39); assay: FLIPR calcium mobilization assay, mouse NMUR2 cell line; format: cell-based; details: for % Activity: mouse NMUR2, maximum response at 1 μM compared to the human NMU-25 response at the same concentration
T4 construct: expressed in transfected cells; host or cells: FLP-In CHO cells and HEK-293 FLP-In cells (pcDNA5)
T4 sequence (Q8BZ39 whole entry): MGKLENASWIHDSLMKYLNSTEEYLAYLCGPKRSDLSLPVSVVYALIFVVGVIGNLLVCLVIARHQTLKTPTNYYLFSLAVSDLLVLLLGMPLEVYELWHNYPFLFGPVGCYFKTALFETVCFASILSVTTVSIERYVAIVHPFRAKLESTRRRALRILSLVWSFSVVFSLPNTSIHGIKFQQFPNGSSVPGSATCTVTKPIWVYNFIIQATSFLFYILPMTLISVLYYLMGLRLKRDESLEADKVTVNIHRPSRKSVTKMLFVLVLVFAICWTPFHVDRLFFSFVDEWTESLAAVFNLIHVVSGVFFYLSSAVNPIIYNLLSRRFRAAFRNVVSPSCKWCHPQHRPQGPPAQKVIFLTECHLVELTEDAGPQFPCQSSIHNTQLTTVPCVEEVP
Excerpt: as §1, §2, §3, §4, §5

dog NMUR1-ATG = assay: FLIPR calcium mobilization assay, dog NMUR1-ATG cell line; format: cell-based; details: for EC50: FLIPR; for % Activity: maximum response at 1 μM compared to the human NMU-25 response at the same concentration
Excerpt: as §1, §2, §3, §4, §5

dog NMUR2 = target: T5, dog NMUR2 (Canis lupus familiaris, UniProt A0A8I3MN59); assay: FLIPR calcium mobilization assay, dog NMUR2 cell line; format: cell-based; details: for % Activity: dog NMUR2, maximum response at 1 μM compared to the human NMU-25 response at the same concentration
T5 construct: expressed in transfected cells
T5 sequence (A0A8I3MN59 1-378): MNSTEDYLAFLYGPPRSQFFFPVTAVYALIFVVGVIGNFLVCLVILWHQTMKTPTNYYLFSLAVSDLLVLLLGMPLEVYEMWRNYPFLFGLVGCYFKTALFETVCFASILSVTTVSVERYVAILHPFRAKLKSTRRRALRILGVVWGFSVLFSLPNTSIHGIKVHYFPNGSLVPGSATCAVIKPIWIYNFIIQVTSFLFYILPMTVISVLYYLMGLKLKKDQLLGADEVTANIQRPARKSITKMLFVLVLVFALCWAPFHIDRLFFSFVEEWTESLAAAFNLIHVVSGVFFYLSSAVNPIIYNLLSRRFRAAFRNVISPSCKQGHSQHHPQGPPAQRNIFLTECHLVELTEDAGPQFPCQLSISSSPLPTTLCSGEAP
Excerpt: as §1, §2, §3, §4, §5

mice = assay: Acute subcutaneous administration of NMS analogs, daily food intake and body weight; format: in vivo; details: for food intake: lipidated analogs compared to NMS1, FIG. 10A; for body weight: lipidated analogs compared to NMS1, FIG. 10B

## CC[C@H](C)[C@H](NC(=O)[C@H](CSCC(=O)O[C@H]1CC[C@@]2(C)C(=CC[C@H]3[C@@H]4CC[C@H]([C@H](C)CCCC(C)C)[C@@]4(C)CC[C@@H]32)C1)NC(C)=O)C(=O)N[C@@H](CC(C)C)C(=O)N[C@@H](CCC(N)=O)C(=O)N[C@@H](CCCNC(=N)N)C(=O)NCC(=O)N[C@@H](CO)C(=O)NCC(=O)N[C@H](C(=O)N[C@@H](C)C(=O)N[C@@H](C)C(=O)N[C@H](C(=O)N[C@@H](CC(=O)O)C(=O)N[C@@H](Cc1ccccc1)C(=O)N[C@H](C(=O)N[C@@H](CCCCN)C(=O)N[C@@H](CCCCN)C(=O)N[C@@H](CC(=O)O)C(=O)N[C@@H](Cc1c[nH]cn1)C(=O)N[C@H](C(=O)N[C@@H](C)C(=O)N[C@H](C(=O)N[C@@H](Cc1c[nH]c2ccccc12)C(=O)NCC(=O)N[C@@H](CCCNC(=N)N)C(=O)N1CCC[C@H]1C(=O)N[C@@H](Cc1ccccc1)C(=O)N[C@@H](Cc1ccccc1)C(=O)N[C@@H](CC(C)C)C(=O)N[C@@H](Cc1ccccc1)C(=O)N[C@@H](CCCNC(=N)N)C(=O)N1CCC[C@H]1C(=O)N[C@@H](CCCNC(=N)N)C(=O)N[C@@H](CC(N)=O)C(N)=O)[C@@H](C)O)[C@@H](C)O)[C@@H](C)O)C(C)C)[C@@H](C)O [NMS2] (Ac-C(X1)ILQRGSGTAAVDFTKKDHTATWGRPFFLFRPRN-NH2)
Human NMUR1
  % Activity: 11%
Human NMUR2
  % Activity: 16%
Mouse NMUR1-ATG
  % Activity: 39%
Mouse NMUR2
  % Activity: 32%
Dog NMUR1-ATG
  EC50: ≥ 1 µM
  % Activity: 46%
Dog NMUR2
  % Activity: 84%
mice
  food intake: significantly reduce
  body weight: significantly reduce

## CCCCCCCCCCCCCCCC(=O)N[C@H](C(=O)N[C@@H](CC(C)C)C(=O)N[C@@H](CCC(N)=O)C(=O)N[C@@H](CCCNC(=N)N)C(=O)NCC(=O)N[C@@H](CO)C(=O)NCC(=O)N[C@H](C(=O)N[C@@H](C)C(=O)N[C@@H](C)C(=O)N[C@H](C(=O)N[C@@H](CC(=O)O)C(=O)N[C@@H](Cc1ccccc1)C(=O)N[C@H](C(=O)N[C@@H](CCCCN)C(=O)N[C@@H](CCCCN)C(=O)N[C@@H](CC(=O)O)C(=O)N[C@@H](Cc1c[nH]cn1)C(=O)N[C@H](C(=O)N[C@@H](C)C(=O)N[C@H](C(=O)N[C@@H](Cc1c[nH]c2ccccc12)C(=O)NCC(=O)N[C@@H](CCCNC(=N)N)C(=O)N1CCC[C@H]1C(=O)N[C@@H](Cc1ccccc1)C(=O)N[C@@H](Cc1ccccc1)C(=O)N[C@@H](CC(C)C)C(=O)N[C@@H](Cc1ccccc1)C(=O)N[C@@H](CCCNC(=N)N)C(=O)N1CCC[C@H]1C(=O)N[C@@H](CCCNC(=N)N)C(=O)N[C@@H](CC(N)=O)C(N)=O)[C@@H](C)O)[C@@H](C)O)[C@@H](C)O)C(C)C)[C@@H](C)O)[C@@H](C)CC [NMS5] (HELM PEPTIDE1{[CCCCCCCCCCCCCCCC(=O)[*:2]].I.L.Q.R.G.S.G.T.A.A.V.D.F.T.K.K.D.H.T.A.T.W.G.R.P.F.F.L.F.R.P.R.N.[am]}$$$$V2.0)
Human NMUR1; human NMUR1, FLIPR
  EC50: 0.248 µM
Human NMUR1
  % Activity: 85%
Human NMUR2; human NMUR2, FLIPR
  EC50: 0.214 µM
Human NMUR2
  % Activity: 93%
Mouse NMUR1-ATG; FLIPR
  EC50: 0.0125 µM
Mouse NMUR1-ATG
  % Activity: 83%
Mouse NMUR2; mouse NMUR2, FLIPR
  EC50: 0.0401 µM
Mouse NMUR2
  % Activity: 78%
Dog NMUR1-ATG
  EC50: ≥ 1 µM
  % Activity: 82%
Dog NMUR2; dog NMUR2, FLIPR
  EC50: 0.0188 µM
Dog NMUR2
  % Activity: 100%
mice
  food intake: significantly reduce
  body weight: significantly reduce
